{
  "source": "paper PMC10583239",
  "about": "(CPT: Pharmacometrics & Systems Pharmacology, 2023)",
  "key": {"CYP2B6 [1]": {"test_system": "CYP2B6", "assay": "in vitro", "settings": "human"}, "CYP2C9": {"target": "CYP2C9 (Homo sapiens, UniProt P11712)", "sequence (P11712 whole entry)": "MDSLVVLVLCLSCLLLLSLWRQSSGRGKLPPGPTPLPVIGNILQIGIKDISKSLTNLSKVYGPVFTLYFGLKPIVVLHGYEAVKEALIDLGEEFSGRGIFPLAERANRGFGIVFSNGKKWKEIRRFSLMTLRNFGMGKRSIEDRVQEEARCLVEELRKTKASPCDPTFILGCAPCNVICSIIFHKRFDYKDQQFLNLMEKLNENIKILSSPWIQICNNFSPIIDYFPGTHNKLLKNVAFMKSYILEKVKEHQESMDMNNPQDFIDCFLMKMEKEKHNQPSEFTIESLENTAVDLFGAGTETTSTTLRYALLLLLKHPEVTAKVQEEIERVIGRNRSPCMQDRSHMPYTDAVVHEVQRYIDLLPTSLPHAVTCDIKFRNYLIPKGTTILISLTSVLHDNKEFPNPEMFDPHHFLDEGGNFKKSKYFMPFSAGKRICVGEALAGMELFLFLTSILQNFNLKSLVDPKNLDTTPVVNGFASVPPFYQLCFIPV", "settings": "main text summary"}, "CYP2D6": {"target": "CYP2D6 (Homo sapiens, UniProt P10635)", "sequence (P10635 whole entry)": "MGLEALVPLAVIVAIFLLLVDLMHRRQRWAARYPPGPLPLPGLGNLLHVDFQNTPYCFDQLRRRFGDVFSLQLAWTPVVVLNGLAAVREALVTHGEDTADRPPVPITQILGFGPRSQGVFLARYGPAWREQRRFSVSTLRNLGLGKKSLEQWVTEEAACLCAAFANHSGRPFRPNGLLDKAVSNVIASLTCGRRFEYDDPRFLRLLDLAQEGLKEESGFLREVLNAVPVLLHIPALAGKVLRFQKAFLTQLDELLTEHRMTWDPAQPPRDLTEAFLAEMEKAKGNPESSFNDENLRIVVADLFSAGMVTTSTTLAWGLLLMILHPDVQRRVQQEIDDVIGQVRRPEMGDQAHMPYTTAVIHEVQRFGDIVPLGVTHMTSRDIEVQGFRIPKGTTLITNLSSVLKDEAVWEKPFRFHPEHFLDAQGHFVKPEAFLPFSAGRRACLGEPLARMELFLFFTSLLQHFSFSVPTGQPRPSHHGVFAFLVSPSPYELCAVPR", "assay": "CYP2D6 inhibition in human liver microsomes", "assay_type": "in vitro ADME"}, "CYP2B6 [2]": {"target": "T1, CYP2B6 (Homo sapiens, UniProt P20813)", "T1 sequence (P20813 1-491)": "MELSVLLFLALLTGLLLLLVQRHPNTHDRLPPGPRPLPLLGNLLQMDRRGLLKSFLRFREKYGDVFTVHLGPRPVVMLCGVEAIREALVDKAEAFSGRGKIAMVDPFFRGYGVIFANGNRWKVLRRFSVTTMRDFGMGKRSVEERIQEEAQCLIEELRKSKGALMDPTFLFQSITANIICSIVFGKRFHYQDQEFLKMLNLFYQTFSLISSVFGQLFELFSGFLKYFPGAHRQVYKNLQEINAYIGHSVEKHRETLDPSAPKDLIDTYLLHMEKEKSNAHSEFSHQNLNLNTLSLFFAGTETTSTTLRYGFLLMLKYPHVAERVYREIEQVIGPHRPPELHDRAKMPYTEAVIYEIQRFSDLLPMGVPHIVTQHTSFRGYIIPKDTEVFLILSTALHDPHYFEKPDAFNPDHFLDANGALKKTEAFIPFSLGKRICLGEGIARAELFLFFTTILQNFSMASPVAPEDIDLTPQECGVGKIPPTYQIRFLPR", "assay": "Metabolic stability in recombinant human CYP2B6 with NADPH", "assay_type": "in vitro ADME", "settings": "CYP2B6 share of CYP metabolism, scaled by abundance and ISEF"}, "CYP2B6 [3]": {"target": "T1, CYP2B6", "settings": "main text summary"}, "BCRP": {"test_system": "BCRP", "assay": "MDCK‐BCRP apparent permeability", "assay_type": "in vitro ADME, canine", "settings": "dog"}, "[4]": {"test_system": "Madin Darby canine kidney–breast cancer resistance protein (BCRP) cell lines", "assay": "MDCK‐BCRP apparent permeability", "assay_type": "in vitro ADME", "settings": "MDCK‐BCRP cell line"}, "CYP1A2 [5]": {"target": "T2, CYP1A2 (Homo sapiens, UniProt P05177)", "T2 sequence (P05177 1-516)": "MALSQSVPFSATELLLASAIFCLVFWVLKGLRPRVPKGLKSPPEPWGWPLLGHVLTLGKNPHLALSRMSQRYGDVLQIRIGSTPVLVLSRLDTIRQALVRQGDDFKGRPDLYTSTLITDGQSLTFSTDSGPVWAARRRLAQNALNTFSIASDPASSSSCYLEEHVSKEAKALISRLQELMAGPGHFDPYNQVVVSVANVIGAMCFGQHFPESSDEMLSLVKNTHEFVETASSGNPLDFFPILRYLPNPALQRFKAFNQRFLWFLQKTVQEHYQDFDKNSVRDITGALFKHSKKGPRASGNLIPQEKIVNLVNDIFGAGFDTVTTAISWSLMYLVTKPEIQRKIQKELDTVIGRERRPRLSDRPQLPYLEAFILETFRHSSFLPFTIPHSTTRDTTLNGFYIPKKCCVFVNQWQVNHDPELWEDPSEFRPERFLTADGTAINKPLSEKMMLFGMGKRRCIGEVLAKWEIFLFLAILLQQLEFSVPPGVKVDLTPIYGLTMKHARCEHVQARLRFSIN", "settings": "main text summary"}, "recombinant human CYP2A6": {"target": "T3, recombinant human CYP2A6 (Homo sapiens, UniProt P11509)", "T3 sequence (P11509 1-494)": "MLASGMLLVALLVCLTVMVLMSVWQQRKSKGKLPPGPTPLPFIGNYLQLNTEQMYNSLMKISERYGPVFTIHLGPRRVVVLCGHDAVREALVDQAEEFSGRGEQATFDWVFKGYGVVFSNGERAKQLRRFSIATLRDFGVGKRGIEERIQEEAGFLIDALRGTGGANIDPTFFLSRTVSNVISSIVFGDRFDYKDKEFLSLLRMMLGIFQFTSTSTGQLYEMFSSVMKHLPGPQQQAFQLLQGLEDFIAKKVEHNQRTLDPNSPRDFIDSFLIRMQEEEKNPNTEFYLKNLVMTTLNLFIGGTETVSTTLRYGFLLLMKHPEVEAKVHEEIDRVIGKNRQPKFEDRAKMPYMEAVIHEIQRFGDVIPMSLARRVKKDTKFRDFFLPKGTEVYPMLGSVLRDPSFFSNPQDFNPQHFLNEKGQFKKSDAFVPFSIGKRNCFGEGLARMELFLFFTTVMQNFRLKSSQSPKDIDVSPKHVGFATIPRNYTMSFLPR", "assay": "Metabolic stability in recombinant human CYP2A6 with NADPH", "assay_type": "in vitro ADME", "settings": "CYP2A6 share of CYP metabolism, scaled by abundance and ISEF"}, "recombinant human CYP2E1": {"target": "recombinant human CYP2E1 (Homo sapiens, UniProt P05181)", "sequence (P05181 whole entry)": "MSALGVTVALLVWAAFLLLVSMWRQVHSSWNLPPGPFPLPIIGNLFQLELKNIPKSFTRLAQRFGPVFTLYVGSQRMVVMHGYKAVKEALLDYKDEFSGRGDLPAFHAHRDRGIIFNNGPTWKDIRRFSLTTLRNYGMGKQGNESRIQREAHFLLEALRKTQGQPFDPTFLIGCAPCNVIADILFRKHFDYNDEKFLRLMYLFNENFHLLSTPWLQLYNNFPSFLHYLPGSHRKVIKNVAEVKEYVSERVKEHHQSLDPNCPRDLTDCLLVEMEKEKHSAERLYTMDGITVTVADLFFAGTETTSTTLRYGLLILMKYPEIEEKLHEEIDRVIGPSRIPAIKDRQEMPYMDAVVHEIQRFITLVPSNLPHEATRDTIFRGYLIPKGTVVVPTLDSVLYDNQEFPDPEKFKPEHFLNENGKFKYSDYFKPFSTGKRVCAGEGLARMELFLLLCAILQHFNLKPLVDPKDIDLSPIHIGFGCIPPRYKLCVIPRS", "assay": "Metabolic stability in recombinant human CYP2E1 with NADPH", "assay_type": "in vitro ADME", "settings": "CYP2E1 share of CYP metabolism, scaled by abundance and ISEF"}, "Human plasma protein": {"test_system": "Human plasma protein", "assay": "Human plasma protein binding", "assay_type": "in vitro ADME", "settings": "PBPK input"}, "[6]": {"assay": "Human plasma protein binding", "assay_type": "in vitro ADME", "settings": "human, human plasma"}, "CYP1A2 [7]": {"target": "T2, CYP1A2", "assay": "Metabolic stability in recombinant human CYP1A2 with NADPH", "assay_type": "in vitro ADME", "settings": "CYP1A2 share of CYP metabolism, scaled by abundance and ISEF"}},
  "data": [
    {"smiles": "N#C[C@H](C[C@@H]1CCCNC1=O)NC(=O)[C@H](CC1CC1)NC(=O)c1cc2cccc(Cl)c2[nH]1", "note": "[Pomotrelvir, pomotrelvir]", "values": [
      {"measurement": "EC50 at 72 h", "setting": "CYP2B6 [1]", "result": 4.84, "unit": "µM"},
      {"measurement": "inhibitory effect on CYP2C9 in vitro (in words)", "setting": "CYP2C9", "result": "weak to moderate inhibition"},
      {"measurement": "Ki", "setting": "CYP2D6", "result": 25.4, "unit": "µM"},
      {"measurement": "inhibitory effect on CYP2D6 in vitro (in words)", "setting": "CYP2D6; main text summary", "result": "No inhibitory effect"},
      {"measurement": "Relative Contribution (fm)", "setting": "CYP2B6 [2]", "result": "negligible"},
      {"measurement": "inhibitory effect on CYP2B6 in vitro (in words)", "setting": "CYP2B6 [3]", "result": "No inhibitory effect"},
      {"measurement": "Papp", "setting": "BCRP", "result": 1.01, "unit": "×10⁻⁶ cm/s"},
      {"measurement": "efflux ratio", "setting": "[4]", "result": "large"},
      {"measurement": "inhibitory effect on CYP1A2 in vitro (in words)", "setting": "CYP1A2 [5]", "result": "weak to moderate inhibition"},
      {"measurement": "Relative Contribution (fm)", "setting": "recombinant human CYP2A6", "result": "negligible"},
      {"measurement": "Relative Contribution (fm)", "setting": "recombinant human CYP2E1", "result": "negligible"},
      {"measurement": "Main binding protein", "setting": "Human plasma protein", "result": "HSA"},
      {"measurement": "fraction unbound", "setting": "[6]", "result": 0.044},
      {"measurement": "Relative Contribution (fm)", "setting": "CYP1A2 [7]", "result": "negligible"}
    ]}
  ]
}
